Data published in US9890117B2, “Benzamide compounds and related methods of use” (Northwestern University, priority 2012, dated 2018).
Structures can show the parent of a compound that is named as a salt.

Molecular target: T1, SIRT2 (Homo sapiens, UniProt Q8IXJ6)
T1 construct: recombinant active enzymes SIRT1, SIRT2, and the catalytically active fragment of SIRT3
T1 sequence (Q8IXJ6 1-389): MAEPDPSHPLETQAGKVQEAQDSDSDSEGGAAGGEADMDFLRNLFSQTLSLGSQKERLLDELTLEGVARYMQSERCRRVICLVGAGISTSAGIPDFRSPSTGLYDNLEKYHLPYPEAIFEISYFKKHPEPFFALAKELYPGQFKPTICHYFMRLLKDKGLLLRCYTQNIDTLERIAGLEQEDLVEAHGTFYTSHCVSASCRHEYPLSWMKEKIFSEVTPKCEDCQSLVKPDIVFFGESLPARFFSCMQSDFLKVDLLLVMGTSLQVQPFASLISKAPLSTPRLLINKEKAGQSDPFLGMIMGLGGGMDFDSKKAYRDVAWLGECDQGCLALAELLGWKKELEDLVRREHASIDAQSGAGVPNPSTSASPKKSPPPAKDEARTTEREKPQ
Experiment: Fluor-de-Lys biochemical sirtuin deacetylation assay, SIRT2
Details: 10 μM

SMILES	inhibition at 10 µM
CC(=O)c1ccc(C(C)(C)Oc2cccc(C(=O)Nc3ccc(Br)cc3)c2)cc1 [Compound 216At, 3-((2-(4-acetylphenyl)propan-2-yl)oxy)-N-(4-bromophenyl)benzamide]	34%
CC(=O)c1ccc(C(C)(C)Oc2cccc(C(=O)Nc3ccc(C(F)(F)F)cc3)c2)cc1 [Compound 216Au, 3-((2-(4-acetylphenyl)propan-2-yl)oxy)-N-(4-(trifluoromethyl)phenyl)benzamide]	27%
CC(=O)c1ccc(C(C)Oc2cccc(C(=O)Nc3ccc(Cl)cc3)c2)cc1 (centres unmarked) [Compound 216Av, 3-(1-(4-acetylphenyl)ethoxy)-N-(4-chlorophenyl)benzamide]	89%
CC(=O)c1ccc(C(C)Oc2cccc(C(=O)Nc3ccc(F)cc3)c2)cc1 (centres unmarked) [Compound 216Aw, 3-(1-(4-acetylphenyl)ethoxy)-N-(4-fluorophenyl)benzamide]	62%
COc1ccc(NC(=O)c2cccc(OC(C)c3ccc(C(C)=O)cc3)c2)cc1 (centres unmarked) [Compound 216Ax, 3-(1-(4-acetylphenyl)ethoxy)-N-(4-methoxyphenyl)benzamide]	56%
CC(=O)c1ccc(NC(=O)c2cccc(OC(C)c3ccc(C(C)=O)cc3)c2)cc1 (centres unmarked) [Compound 216Ay, N-(4-acetylphenyl)-3-(1-(4-acetylphenyl)ethoxy)benzamide]	94%
CC(=O)c1ccc(C(C)Oc2cccc(C(=O)Nc3ccc(CC#N)cc3)c2)cc1 (centres unmarked) [Compound 216Az, 3-(1-(4-acetylphenyl)ethoxy)-N-(4-(cyanomethyl)phenyl)benzamide]	58%
CC(=O)c1ccc(C(C)Oc2cccc(C(=O)Nc3ccc(Br)cc3)c2)cc1 (centres unmarked) [Compound 216Ba, 3-(1-(4-acetylphenyl)ethoxy)-N-(4-bromophenyl)benzamide]	85%
CC(=O)c1ccc(C(C)Oc2cccc(C(=O)Nc3ccc(S(C)(=O)=O)cc3)c2)cc1 (centres unmarked) [Compound 216Bb, 3-(1-(4-acetylphenyl)ethoxy)-N-(4-(methylsulfonyl)phenyl)benzamide]	70%
CC(=O)c1ccc(C(C)Oc2cccc(C(=O)Nc3ccc(C(F)(F)F)cc3)c2)cc1 (centres unmarked) [Compound 216Bc, 3-(1-(4-acetylphenyl)ethoxy)-N-(4-(trifluoromethyl)phenyl)benzamide]	77%
C[C@@H](Oc1cccc(C(=O)Nc2ccc(C#N)cc2)c1)c1ccc(F)cc1 [Compound 216l, (R)—N-(4-cyanophenyl)-3-(1-(4-fluorophenyl)ethoxy)benzamide]	88%
C[C@H](Oc1cccc(C(=O)Nc2ccc(C#N)cc2)c1)c1ccc(F)cc1 [Compound 216o, (S)—N-(4-cyanophenyl)-3-(1-(4-fluorophenyl)ethoxy)benzamide]	54%
CC(C)(Oc1cccc(C(=O)Nc2ccc(C#N)cc2)c1)c1ccc(F)cc1 [Compound 216p, N-(4-cyanophenyl)-3-((2-(4-fluorophenyl)propan-2-yl)oxy)benzamide]	55%
C=CCOc1cc(OCc2ccc(C#N)cc2)cc(C(=O)Nc2ccc(C#N)cc2)c1 [Compound 216v, 3-(allyloxy)-5-((4-cyanobenzyl)oxy)-N-(4-cyanophenyl)benzamide]	11%
N#Cc1ccc(COc2cc(OC[C@@H](O)CO)cc(C(=O)Nc3ccc(C#N)cc3)c2)cc1 [Compound 216x, (S)-3-((4-cyanobenzyl)oxy)-N-(4-cyanophenyl)-5-(2,3-dihydroxypropoxy)benzamide]	25%
CCN(CC)CCOc1cc(OCc2ccc(C#N)cc2)cc(C(=O)Nc2ccc(C#N)cc2)c1 [Compound 216y, 3-((4-cyanobenzyl)oxy)-N-(4-cyanophenyl)-5-(2-(diethylamino)ethoxy)benzamide]	19%
N#Cc1ccc(NC(=O)c2cccc(NCc3ccc(F)cc3)c2)nc1 [Compound 221b, N-(5-cyanopyridin-2-yl)-3-((4-fluorobenzyl)amino)benzamide]	28%
CN(Cc1ccc(C#N)cc1)Cc1cccc(C(=O)Nc2ccc(C#N)cc2)c1 [Compound 225a, 3-(((4-cyanobenzyl)(methyl)amino)methyl)-N-(4-cyanophenyl)benzamide]	63%
N#Cc1ccc(NC(=O)c2cccc(CN(Cc3ccc(F)c(F)c3)C3CC3)c2)cc1 [Compound 225d, N-(4-cyanophenyl)-3-((cyclopropyl(3,4-difluorobenzyl)amino)methyl)benzamide hydrochloride]	55%

SMILES	inhibition at 10 µM
N#Cc1ccc(NC(=O)c2cccc(CN(Cc3ccc(C(F)(F)F)cc3)C3CC3)c2)cc1 [Compound 225e, N-(4-cyanophenyl)-3-((cyclopropyl(4-(trifluoromethyl)benzyl)amino)methyl)-benzamide hydrochloride]	49%
N#Cc1ccc(NC(=O)c2cccc(CN(Cc3cc(F)cc(F)c3)C3CC3)c2)cc1 [Compound 225f, N-(4-cyanophenyl)-3-((cyclopropyl(3,5-difluorobenzyl)amino)methyl)benzamide hydrochloride]	64%
N#Cc1ccc(NC(=O)c2cccc(CN(Cc3ccc(C#N)nc3)C3CC3)c2)cc1 [Compound 225g, N-(4-cyanophenyl)-3-((((6-cyanopyridin-3-yl)methyl)(cyclopropyl)amino)-methyl)benzamide hydrochloride]	44%
CC(C)(C)N(Cc1ccc(C#N)cc1)Cc1cccc(C(=O)Nc2ccc(C#N)cc2)c1 [Compound 225h, 3-((tert-butyl(4-cyanobenzyl)amino)methyl)-N-(4-cyanophenyl)benzamide hydrochloride]	28%
N#Cc1ccc(NC(=O)c2cccc(CN(Cc3ccc(Br)cc3)C3CC3)c2)cc1 [Compound 225l, 3-(((4-bromobenzyl)(cyclopropyl)amino)methyl)-N-(4-cyanophenyl)benzamide hydrochloride]	37%
N#Cc1ccc(NC(=O)c2cccc3c2CCN(Cc2ccc(F)c(F)c2)C3)cc1 [Compound 225m, N-(4-cyanophenyl)-2-(3,4-difluorobenzyl)-1,2,3,4-tetrahydroisoquinoline-5-carboxamide hydrochloride]	65%
CN(C(=O)c1cncc(CN(Cc2ccc(F)c(F)c2)C2CC2)c1)c1ccc(C#N)cc1 [Compound 225n, N-(4-cyanophenyl)-5-((cyclopropyl(3,4-difluorobenzyl)amino)methyl)-N-methylnicotinamide hydrochloride]	0%
N#Cc1ccc(CN(Cc2cncc(C(=O)Nc3ccc(Cl)cc3)c2)C2CC2)cc1 [Compound 225o, N-(4-chlorophenyl)-5-(((4-cyanobenzyl)(cyclopropyl)amino)methyl)nicotinamide hydrochloride]	8%
CN(C(=O)c1cncc(CN(Cc2ccc(C#N)cc2)C2CC2)c1)c1ccc(Cl)cc1 [Compound 225p, N-(4-chlorophenyl)-5-(((4-cyanobenzyl)(cyclopropyl)amino)methyl)-N-methylnicotinamide hydrochloride]	0%
N#Cc1ccc(NC(=O)c2cccc(CN3CCc4cc(Br)ccc4C3)c2)cc1 [Compound 225q, 3-((6-bromo-3,4-dihydroisoquinolin-2(1H)-yl)methyl)-N-(4-cyanophenyl)benzamide hydrochloride]	80%
CC(=O)c1ccc(CN(Cc2cncc(C(=O)Nc3ccc(C#N)cc3)c2)C2CC2)cc1 [Compound 225r, 5-(((4-acetylbenzyl)(cyclopropyl)amino)methyl)-N-(4-cyanophenyl)nicotinamide hydrochloride]	10%
CC(=O)c1ccc(CN(Cc2cncc(C(=O)N(C)c3ccc(C#N)cc3)c2)C2CC2)cc1 [Compound 225s, 5-(((4-acetylbenzyl)(cyclopropyl)amino)methyl)-N-(4-cyanophenyl)-N-methylnicotinamide hydrochloride]	3%
O=C(Nc1ccc(Cl)cc1)c1cncc(CN(Cc2ccc(F)c(F)c2)C2CC2)c1 [Compound 225t, N-(4-chlorophenyl)-5-((cyclopropyl(3,4-difluorobenzyl)amino)methyl)nicotinamide hydrochloride]	9%
CC(=O)c1ccc(NC(=O)c2cncc(CN(Cc3ccc(F)c(F)c3)C3CC3)c2)cc1 [Compound 225u, N-(4-acetylphenyl)-5-((cyclopropyl(3,4-difluorobenzyl)amino)methyl)nicotinamide hydrochloride]	5%
O=C(Nc1ccc(C(F)(F)F)cc1)c1cncc(CN(Cc2ccc(F)c(F)c2)C2CC2)c1 [Compound 225v, 5-((cyclopropyl(3,4-difluorobenzyl)amino)methyl)-N-(4-(trifluoromethyl)phenyl)-nicotinamide hydrochloride]	3%
N#Cc1cccc(NC(=O)c2cncc(CN(Cc3ccc(F)c(F)c3)C3CC3)c2)c1 [Compound 225w, N-(3-cyanophenyl)-5-((cyclopropyl(3,4-difluorobenzyl)amino)methyl)nicotinamide hydrochloride]	20%
CC(=O)c1ccc(CN(Cc2cccc(C(=O)Nc3ccc(C#N)cc3)c2)C2CC2)cc1 [Compound 225x, 3-(((4-acetylbenzyl)(cyclopropyl)amino)methyl)-N-(4-cyanophenyl)benzamide hydrochloride]	24%
CN(c1ccc(Cl)cc1)S(=O)(=O)c1cccc(NC(=O)Nc2ccc(Cl)cc2)c1 [Compound 233a, N-(4-chlorophenyl)-3-(3-(4-chlorophenyl)ureido)-N-methylbenzenesulfonamide]	0%
N#Cc1ccc(/N=C(/N)c2cccc(OCc3cccc(F)c3F)c2)cc1 [Compound 234a, N′-(4-cyanophenyl)-3-((2,3-difluorobenzyl)oxy)benzimidamide hydrochloride]	12%
